Data as given in ChEMBL document CHEMBL4419166, “Use of small molecule inhibitors to klf10 for modulation of t regulatory cells and cancer immunotherapy” (2017).
Calls of active or inactive are those of the source. No cut-off for these calls is given here.

Tests used:
[1] = target: Krueppel-like factor 1 (Homo sapiens) (UniProt Q13351); assay: Inhibition of GST-tagged KLF1 (unknown origin) binding to double-stranded DNA at 8 uM by electromobility gel shift assay relative to control
[2] = target: Krueppel-like factor 1 (Homo sapiens) (UniProt Q13351); assay: Inhibition of GST-tagged KLF1 (unknown origin) binding to double-stranded DNA at 40 uM by electromobility gel shift assay relative to control
[3] = target: T1, Krueppel-like factor 10 (Mus musculus) (UniProt O89091); assay: Inhibition of KLF10 in mouse CD4+CD25- T cells assessed as reduction in Foxp3 mRNA expression at 50 uM incubated for 5 days by real time qPCR analysis relative to control; format: cell-based
T1 sequence (whole entry): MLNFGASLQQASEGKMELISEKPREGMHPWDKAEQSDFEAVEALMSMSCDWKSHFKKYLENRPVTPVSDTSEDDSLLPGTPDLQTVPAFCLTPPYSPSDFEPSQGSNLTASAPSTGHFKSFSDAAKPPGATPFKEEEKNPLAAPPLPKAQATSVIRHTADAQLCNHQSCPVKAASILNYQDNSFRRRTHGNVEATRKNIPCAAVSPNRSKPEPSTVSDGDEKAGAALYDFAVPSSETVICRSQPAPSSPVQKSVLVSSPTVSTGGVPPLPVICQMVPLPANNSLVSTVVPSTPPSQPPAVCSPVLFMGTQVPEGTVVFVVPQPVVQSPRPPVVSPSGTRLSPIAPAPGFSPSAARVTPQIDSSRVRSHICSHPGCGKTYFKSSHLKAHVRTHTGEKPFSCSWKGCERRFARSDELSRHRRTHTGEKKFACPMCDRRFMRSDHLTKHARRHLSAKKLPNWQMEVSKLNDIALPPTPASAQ

[4] = target: T1, Krueppel-like factor 10 (Mus musculus); assay: Inhibition of KLF10 in mouse CD4+CD25- T cells assessed as reduction in PD1 mRNA expression at 50 uM incubated for 5 days by real time qPCR analysis relative to control; format: cell-based
[5] = target: T1, Krueppel-like factor 10 (Mus musculus); assay: Inhibition of KLF10 in mouse CD4+CD25- T cells assessed as reduction in Foxp3 mRNA expression incubated for 5 days by real time qPCR analysis relative to control; format: cell-based
[6] = target: T1, Krueppel-like factor 10 (Mus musculus); assay: Inhibition of KLF10 in mouse CD4+CD25- T cells assessed as reduction in checkpoint markers on iTregs by measuring PD1 expression level; format: cell-based; design: scale not given: the % may be the effect or the level left
[7] = target: T1, Krueppel-like factor 10 (Mus musculus); assay: Inhibition of KLF10 in mouse CD4+CD25- T cells assessed as reduction in checkpoint markers on iTregs by measuring PDL1 expression level; format: cell-based; design: scale not given: the % may be the effect or the level left
[8] = target: T1, Krueppel-like factor 10 (Mus musculus); assay: Inhibition of KLF10 in mouse CD4+CD25- T cells assessed as reduction in checkpoint markers on iTregs by measuring CTLA4 expression level; format: cell-based; design: scale not given: the % may be the effect or the level left
B16 [9] = assay: Antitumor activity against mouse B16cells implanted in mouse assessed as reduction tumor volume at 20 mg/kg dosed via local injection on day 0 and measured from day 4 to day 13; format: functional, organism-based
B16 [10] = assay: Antitumor activity against mouse B16 cells implanted in mouse assessed as reduction tumor volume at 200 mg/kg, ip dosed on day 3 to 7; format: functional, organism-based
Mus musculus [11] = assay: Antitumor activity against mouse TRAMP-C2 cells implanted in mouse assessed as reduction tumor volume at 200 mg/kg, ip dosed on day 3 to 7; format: functional, organism-based
Mus musculus [12] = assay: Suppression of TGF-beta1 expression in CD4+ T cells isolated from mouse B16 cells implanted mouse at 25 to 100 mg/kg, ip; format: functional, organism-based

Krueppel-like factor 1 (Homo sapiens), sequence (Q13351 whole entry): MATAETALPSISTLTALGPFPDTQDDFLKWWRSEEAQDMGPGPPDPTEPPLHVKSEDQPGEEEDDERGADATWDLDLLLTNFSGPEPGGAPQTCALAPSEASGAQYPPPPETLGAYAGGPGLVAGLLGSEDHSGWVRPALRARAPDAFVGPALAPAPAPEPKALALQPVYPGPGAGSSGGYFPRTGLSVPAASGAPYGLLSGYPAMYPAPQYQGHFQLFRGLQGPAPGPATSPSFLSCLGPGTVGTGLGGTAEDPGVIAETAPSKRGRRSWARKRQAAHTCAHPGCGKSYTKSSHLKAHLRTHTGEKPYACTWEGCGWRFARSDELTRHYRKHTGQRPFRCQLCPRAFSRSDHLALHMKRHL

inhibition [1]	inhibition [2]	inhibition [3] [%]	inhibition [4]	inhibition [5]	Activity [6] [%]	Activity [7] [%]	Activity [8] [%]	SMILES	Activity (B16 [9])	inhibition (B16 [10])	inhibition (Mus musculus [11])	inhibition (Mus musculus [12])
inactive	inactive	82.5	Active	Active	47.6	53.1	92	COc1ccc(C(=O)COC(=O)c2cc(C)ccc2O)cc1	–	–	–	–
inactive	inactive	–	–	Active	49.4	43.7	88.7	Cc1ccc(OCC(=O)c2cc(C)c(O)cc2O)cc1	Active	Active	Active	Active
